Source: ChEMBL document CHEMBL4622852, “Design and synthesis of novel proline based factor XIa selective inhibitors as leads for potential new anticoagulants” (Bioorg Med Chem Lett, 2020)
Activity calls are given as the source filed them. No cut-off for these calls is given here.

Assays:
Prothrombin = Prothrombin (Homo sapiens, UniProt P00734); experiment: Inhibition of thrombin (unknown origin)
Coagulation factor XI [1] = target: T1, Coagulation factor XI (Homo sapiens, UniProt P03951); experiment: Inhibition of factor 11a (unknown origin)
T1 sequence (P03951 19-387 limits assumed): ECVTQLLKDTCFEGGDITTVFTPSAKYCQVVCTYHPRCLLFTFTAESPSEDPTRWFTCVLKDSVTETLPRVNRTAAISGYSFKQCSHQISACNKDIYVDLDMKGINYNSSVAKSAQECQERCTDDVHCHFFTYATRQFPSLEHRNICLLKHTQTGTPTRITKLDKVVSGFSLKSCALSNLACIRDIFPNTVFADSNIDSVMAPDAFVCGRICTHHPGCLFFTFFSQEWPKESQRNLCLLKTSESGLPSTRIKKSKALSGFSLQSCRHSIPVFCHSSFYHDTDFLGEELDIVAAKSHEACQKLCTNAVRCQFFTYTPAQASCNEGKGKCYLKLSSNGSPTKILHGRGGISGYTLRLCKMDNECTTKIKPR
T1 sequence (P03951 388-625 limits assumed): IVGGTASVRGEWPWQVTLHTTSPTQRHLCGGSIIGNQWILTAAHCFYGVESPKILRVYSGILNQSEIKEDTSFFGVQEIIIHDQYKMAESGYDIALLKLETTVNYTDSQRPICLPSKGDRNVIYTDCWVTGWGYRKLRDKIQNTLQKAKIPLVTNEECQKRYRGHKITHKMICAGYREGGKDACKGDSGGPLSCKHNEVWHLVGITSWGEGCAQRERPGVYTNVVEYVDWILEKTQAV

Trypsin = Trypsin (Homo sapiens, UniProt P07477+P07478+P35030); experiment: Inhibition of trypsin (unknown origin); type: protein assay
Coagulation factor VII = target: T2, Coagulation factor VII (Homo sapiens, UniProt P08709); experiment: (§1) Inhibition of factor 7a (unknown origin)
T2 sequence (P08709 whole entry): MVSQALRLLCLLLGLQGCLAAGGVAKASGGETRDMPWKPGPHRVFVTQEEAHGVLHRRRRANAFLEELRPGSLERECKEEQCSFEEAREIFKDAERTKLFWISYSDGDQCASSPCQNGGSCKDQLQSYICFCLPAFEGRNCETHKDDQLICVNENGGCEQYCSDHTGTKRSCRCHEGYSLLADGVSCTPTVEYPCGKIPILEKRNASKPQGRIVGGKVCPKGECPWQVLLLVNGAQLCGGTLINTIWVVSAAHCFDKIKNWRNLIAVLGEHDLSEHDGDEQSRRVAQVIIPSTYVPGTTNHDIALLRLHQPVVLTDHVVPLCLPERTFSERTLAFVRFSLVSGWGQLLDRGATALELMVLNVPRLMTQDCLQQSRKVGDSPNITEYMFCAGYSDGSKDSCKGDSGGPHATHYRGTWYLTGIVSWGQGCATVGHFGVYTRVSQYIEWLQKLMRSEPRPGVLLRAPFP

Coagulation factor XII = target: T3, Coagulation factor XII (Homo sapiens, UniProt P00748); experiment: Inhibition of factor 12a (unknown origin)
T3 sequence (P00748 whole entry): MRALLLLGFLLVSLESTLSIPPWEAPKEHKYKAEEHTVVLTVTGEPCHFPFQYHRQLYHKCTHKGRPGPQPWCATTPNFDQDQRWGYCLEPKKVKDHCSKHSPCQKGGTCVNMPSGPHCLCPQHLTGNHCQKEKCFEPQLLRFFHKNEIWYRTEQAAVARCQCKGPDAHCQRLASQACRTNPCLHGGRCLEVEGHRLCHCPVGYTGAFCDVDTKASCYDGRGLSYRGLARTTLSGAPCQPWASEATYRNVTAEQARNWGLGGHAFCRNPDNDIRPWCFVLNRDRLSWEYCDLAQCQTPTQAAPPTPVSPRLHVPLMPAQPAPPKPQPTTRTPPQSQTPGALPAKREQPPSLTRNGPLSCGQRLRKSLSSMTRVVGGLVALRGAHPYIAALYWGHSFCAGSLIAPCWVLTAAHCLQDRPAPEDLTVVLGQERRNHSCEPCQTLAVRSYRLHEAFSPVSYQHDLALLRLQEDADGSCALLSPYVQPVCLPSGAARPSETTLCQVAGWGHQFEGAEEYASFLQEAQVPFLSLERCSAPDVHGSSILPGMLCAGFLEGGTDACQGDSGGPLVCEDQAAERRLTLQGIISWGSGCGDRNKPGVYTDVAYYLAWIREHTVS

Coagulation factor IX = Coagulation factor IX (Homo sapiens, UniProt P00740); experiment: Inhibition of factor 9a (unknown origin)
Chain of Coagulation factor IX (P00740 47-191 limits assumed): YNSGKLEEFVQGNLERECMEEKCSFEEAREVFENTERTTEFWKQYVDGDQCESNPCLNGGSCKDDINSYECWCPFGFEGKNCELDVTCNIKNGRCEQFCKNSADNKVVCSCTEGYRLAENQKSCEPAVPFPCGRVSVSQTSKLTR
Chain of Coagulation factor IX (P00740 227-461 limits assumed): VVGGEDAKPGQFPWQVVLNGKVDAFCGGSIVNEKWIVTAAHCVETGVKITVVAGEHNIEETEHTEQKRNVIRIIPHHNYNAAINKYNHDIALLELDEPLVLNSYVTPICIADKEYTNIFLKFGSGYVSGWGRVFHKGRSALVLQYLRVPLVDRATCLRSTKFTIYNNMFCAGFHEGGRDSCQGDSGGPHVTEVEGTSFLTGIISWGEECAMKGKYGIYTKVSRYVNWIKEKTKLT

Coagulation factor X = Coagulation factor X (Homo sapiens, UniProt P00742); experiment: Inhibition of factor 10a (unknown origin)
Chain of Coagulation factor X (P00742 41-179 limits assumed): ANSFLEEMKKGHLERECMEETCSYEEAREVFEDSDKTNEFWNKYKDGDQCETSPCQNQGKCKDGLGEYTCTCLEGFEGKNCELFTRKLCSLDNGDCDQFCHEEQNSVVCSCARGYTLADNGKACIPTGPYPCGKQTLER
Chain of Coagulation factor X (P00742 235-488 limits assumed): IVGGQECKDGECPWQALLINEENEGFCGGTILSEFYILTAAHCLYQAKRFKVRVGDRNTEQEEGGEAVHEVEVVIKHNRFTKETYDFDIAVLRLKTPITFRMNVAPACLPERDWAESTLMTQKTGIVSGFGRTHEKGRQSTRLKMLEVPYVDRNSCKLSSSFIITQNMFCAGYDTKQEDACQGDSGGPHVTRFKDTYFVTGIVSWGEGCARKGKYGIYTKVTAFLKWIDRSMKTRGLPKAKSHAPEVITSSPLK

[2] = target: T4, Coagulation factor VII (Homo sapiens) (UniProt P08709); experiment: as §1
T4 sequence (whole entry): T2 sequence (P08709 whole entry)

Coagulation factor XI [3] = target: T1, Coagulation factor XI; experiment: Inhibition of factor 11a (unknown origin) at 10 uM relative to control

Compound	IC50 (Prothrombin) [nM]	IC50 (Coagulation factor XI [1]) [nM]	further results
CC(C)C[C@@H](NC1CCCCC1)C(=O)N1C[C@@H](F)C[C@H]1C(=O)NCc1ccc2c(N)nccc2c1	> 5000	437	
CC(C)C[C@@H](NC1CCCCC1)C(=O)N1C[C@@H](C)C[C@H]1C(=O)NCc1ccc2c(N)nccc2c1		2340	
CC(C)CN[C@H](CC(C)C)C(=O)N1CCC[C@H]1C(=O)NCc1ccc2c(N)nccc2c1	37	2690	
CC(C)C[C@@H](NC1CCCC1)C(=O)N1CCC[C@H]1C(=O)NCc1ccc2c(N)nccc2c1	38	1380	
O=C(NCc1cc(Cl)ccc1-n1cnnn1)[C@@H]1CCCN1C(=O)[C@@H](CC1CCCCC1)NC1CCCCC1		> 30000	
CC(C)C[C@@H](NC1CCC1)C(=O)N1CCC[C@H]1C(=O)NCc1ccc2c(N)nccc2c1	44	3310	
CC[C@H](C)[C@@H](NC1CCCCC1)C(=O)N1CCC[C@H]1C(=O)NCc1ccc2c(N)nccc2c1		347	
CC(C)C[C@@H](NC1CCCCC1)C(=O)N1CC[C@H]1C(=O)NCc1ccc2c(N)nccc2c1	3	1100	
Nc1ncnc2oc(CNC(=O)[C@@H]3CCCN3C(=O)[C@@H](CC3CCCCC3)NC3CCCCC3)cc12			inhibition (Coagulation factor XI [3]): 8%
CC(C)C[C@@H](NC(C)C(F)F)C(=O)N1CCC[C@H]1C(=O)NCc1ccc2c(N)nccc2c1 (stereo partly specified)	95	339	
CCS(=O)(=O)N[C@H](CC(C)C)C(=O)N1CCC[C@H]1C(=O)NCc1ccc2c(N)nccc2c1	24	794	
Nc1ncnc2cc(CNC(=O)[C@@H]3CCCN3C(=O)[C@@H](CC3CCCCC3)NC3CCCCC3)ccc12			inhibition (Coagulation factor XI [3]): 10%
CC(C)C[C@@H](NC1CCOCC1)C(=O)N1CCC[C@H]1C(=O)NCc1ccc2c(N)nccc2c1	281	1350	
Cc1cc2cc(CNC(=O)[C@@H]3CCCN3C(=O)[C@@H](CC3CCCCC3)NC3CCCCC3)ccc2c(N)n1			inhibition (Coagulation factor XI [3]): 61%
CC(C)C[C@@H](NC1CCC(C(F)(F)F)CC1)C(=O)N1CCC[C@H]1C(=O)NCc1ccc2c(N)nccc2c1 (stereo partly specified)	174	490	
CC(C)C[C@@H](NC1CCC(F)(F)CC1)C(=O)N1CCC[C@H]1C(=O)NCc1ccc2c(N)nccc2c1	120	417	

Continued by falling IC50 (Coagulation factor XI [1]), values first:

IC50 (Prothrombin) [nM]	IC50 (Coagulation factor XI [1]) [nM]	Compound	further results
> 5000	263	CO[C@H]1C[C@@H](C(=O)NCc2ccc3c(N)nccc3c2)N(C(=O)[C@@H](CC(C)C)NC2CCCCC2)C1	
7	234	CC(C)[C@@H](NC1CCCCC1)C(=O)N1CCC[C@H]1C(=O)NCc1ccc2c(N)nccc2c1	
2	224	Nc1nccc2cc(CNC(=O)[C@@H]3CCCN3C(=O)[C@H](NC3CCCCC3)C3CCOCC3)ccc12	
9	171	CCC[C@@H](NC1CCCCC1)C(=O)N1CCC[C@H]1C(=O)NCc1ccc2c(N)nccc2c1	
1	160	Nc1nccc2cc(CNC(=O)[C@@H]3CCCN3C(=O)[C@@H](CC3CCCCC3)NC3CCCCC3)ccc12	inhibition [2]: Active; inhibition (Coagulation factor IX): Active; inhibition (Coagulation factor X): Active
4	138	CC(C)C[C@@H](NC1CCCCC1)C(=O)N1CCCC[C@H]1C(=O)NCc1ccc2c(N)nccc2c1	
1000	100	CC(C)C[C@@H](NC1CCCCC1)C(=O)N1C[C@@H](O)C[C@H]1C(=O)NCc1ccc2c(N)nccc2c1	
6	98	Nc1nccc2cc(CNC(=O)[C@@H]3CCCN3C(=O)[C@@H](CC3CC3)NC3CCCCC3)ccc12	
6	91	Nc1nccc2cc(CNC(=O)[C@@H]3CCCN3C(=O)[C@H](NC3CCCCC3)C3CCCCC3)ccc12	
1190	88	CC[C@@H](C)[C@@H](NC1CCC(F)(F)CC1)C(=O)N1C[C@](O)(CC)C[C@H]1C(=O)NCc1ccc2c(N)nccc2c1	IC50 (Trypsin): 2701 nM; IC50 (Coagulation factor VII): 3800 nM; IC50 (Coagulation factor XII): > 10000 nM; IC50 (Coagulation factor IX): > 30000 nM; IC50 (Coagulation factor X): 652 nM
3630	77	CC[C@@H](C)[C@@H](NC(C)C(F)F)C(=O)N1C[C@@](C)(O)C[C@H]1C(=O)NCc1ccc2c(N)nccc2c1 (stereo partly specified)	IC50 (Trypsin): 4034 nM; IC50 (Coagulation factor VII): 2760 nM; IC50 (Coagulation factor XII): > 10000 nM; IC50 (Coagulation factor IX): > 10000 nM; IC50 (Coagulation factor X): 798 nM
> 5000	76	CC(C)C[C@@H](NC1CCCCC1)C(=O)N1C[C@@H](C(F)(F)F)C[C@H]1C(=O)NCc1ccc2c(N)nccc2c1	
5	60	CC(C)C[C@@H](NC1CCCCC1)C(=O)N1CCC[C@H]1C(=O)NCc1ccc2c(N)nccc2c1	
	49	CC(C)C[C@@H](NC1CCCCC1)C(=O)N1C[C@@](C)(O)C[C@H]1C(=O)NCc1ccc2c(N)nccc2c1	
521	46	CC[C@@H](C)[C@@H](NS(=O)(=O)Cc1ccc(C(F)(F)F)cc1)C(=O)N1C[C@@](C)(O)C[C@H]1C(=O)NCc1ccc2c(N)nccc2c1	IC50 (Trypsin): 2912 nM; IC50 (Coagulation factor VII): 2780 nM; IC50 (Coagulation factor XII): > 30000 nM; IC50 (Coagulation factor IX): > 30000 nM; IC50 (Coagulation factor X): 328 nM
289	28	CC[C@@H](C)[C@@H](NC1CCCCC1)C(=O)N1C[C@@](C)(C#N)C[C@H]1C(=O)NCc1ccc2c(N)nccc2c1	IC50 (Trypsin): 3371 nM; IC50 (Coagulation factor VII): 1130 nM; IC50 (Coagulation factor XII): 7290 nM; IC50 (Coagulation factor IX): > 10000 nM; IC50 (Coagulation factor X): 2740 nM
92	22	CC[C@@H](C)[C@@H](NC1CCCCC1)C(=O)N1C[C@](O)(CC)C[C@H]1C(=O)NCc1ccc2c(N)nccc2c1	IC50 (Trypsin): 410 nM; IC50 (Coagulation factor VII): 646 nM; IC50 (Coagulation factor XII): 426 nM; IC50 (Coagulation factor IX): > 10000 nM; IC50 (Coagulation factor X): 93 nM
309	21	CC[C@@H](C)[C@@H](NC1CCCCC1)C(=O)N1C[C@@H](O)C[C@H]1C(=O)NCc1ccc2c(N)nccc2c1	IC50 (Trypsin): 824 nM; IC50 (Coagulation factor VII): 993 nM; IC50 (Coagulation factor XII): 341 nM; IC50 (Coagulation factor IX): 8330 nM; IC50 (Coagulation factor X): 136 nM
	16	CC[C@@H](C)[C@@H](NC1CCCCC1)C(=O)N1CCC[C@H]1C(=O)NCc1ccc2c(N)nccc2c1	
370	15	CC[C@@H](C)[C@@H](NS(=O)(=O)Cc1ccc(Cl)cc1)C(=O)N1C[C@@](C)(O)C[C@H]1C(=O)NCc1ccc2c(N)nccc2c1	IC50 (Trypsin): 2020 nM; IC50 (Coagulation factor VII): 2020 nM; IC50 (Coagulation factor XII): > 30000 nM; IC50 (Coagulation factor IX): > 20000 nM; IC50 (Coagulation factor X): 78 nM
218	12	CC[C@@H](C)[C@@H](NC1CCCCC1)C(=O)N1C[C@@](C)(O)C[C@H]1C(=O)NCc1ccc2c(N)nccc2c1	IC50 (Trypsin): 547 nM; IC50 (Coagulation factor VII): 461 nM; IC50 (Coagulation factor XII): 241 nM; IC50 (Coagulation factor IX): 7830 nM; IC50 (Coagulation factor X): 49 nM
43	10	CC[C@@H](C)[C@@H](NS(=O)(=O)Cc1ccc(Cl)cc1)C(=O)N1C[C@@](C)(C#N)C[C@H]1C(=O)NCc1ccc2c(N)nccc2c1	IC50 (Trypsin): 2526 nM; IC50 (Coagulation factor VII): 285 nM; IC50 (Coagulation factor XII): > 20000 nM; IC50 (Coagulation factor IX): > 30000 nM; IC50 (Coagulation factor X): 829 nM
